Measurements: PubChem BioAssay (NCI)
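Dose response: 5 concentrations. Exposure: 48 h. Format: 96-well plates. Endpoint: linear interpolation; highest concentration if not reached. Definition used: TGI = concentration required for complete inhibition of growth.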

Tests used:
Test in all cases: inhibition of tumour cell growth, NCI panel, 48 h
SN12C renal = system: SN12C renal
RPMI-8226 leukemia = system: RPMI-8226 leukemia
SF-295 CNS = system: SF-295 CNS
MDA-MB-435 = system: MDA-MB-435
UACC-62 melanoma = system: UACC-62 melanoma
SK-MEL-5 melanoma = system: SK-MEL-5 melanoma
PC-3 prostate = system: PC-3 prostate
OVCAR-8 ovarian = system: OVCAR-8 ovarian
KM12 colon = system: KM12 colon
DU-145 prostate = system: DU-145 prostate
HCC-2998 colon = system: HCC-2998 colon

| Structure (SMILES) | TGI (SN12C renal) [µM] | TGI (RPMI-8226 leukemia) [µM] | TGI (SF-295 CNS) [µM] | TGI (MDA-MB-435) [µM] | TGI (UACC-62 melanoma) [µM] | TGI (SK-MEL-5 melanoma) [µM] | TGI (PC-3 prostate) [µM] | TGI (OVCAR-8 ovarian) [µM] | TGI (KM12 colon) [µM] | TGI (DU-145 prostate) [µM] | TGI (HCC-2998 colon) [µM] |
| --- | --- | --- | --- | --- | --- | --- | --- | --- | --- | --- | --- |
| CCSC1=CC2(O)N(CCc3ccc(OC)c(OC)c3)C(=O)CC2(C(=O)OC)CC1=O (stereo unspecified) | 36.3 | 91.3 | > 100 | 46 | 39.8 | > 100 | 35.5 | 31 | 33.4 | 32.6 | 36 |
| NCCSCCC(=O)O | > 100 | > 92.3 | > 92.3 | > 100 | > 70.9 | > 85.3 | > 100 | > 100 | > 100 | > 100 | 98.4 |
| O=c1c2nc(-c3ccccc3)oc2n(-c2ccccc2)c(=O)n1-c1ccccc1 | > 46.4 | > 46.4 | 42.4 | > 46.4 | > 46.4 | > 31.6 | > 46.4 | 44.6 | > 46.4 | > 100 | > 46.4 |
| S=C1SC(=Nc2ccccc2)C(=Nc2ccccc2)N1c1ccc2ccccc2c1 | > 100 | > 100 | > 100 | > 100 | > 100 | > 100 | > 100 | > 100 | > 100 | > 100 | > 100 |
| CC1(C)C=C(/C=N/Nc2ccccc2)C(C#N)=C(O)C1(C#N)C#N | > 100 | > 100 | > 100 | > 100 | > 100 | > 100 | > 100 | > 100 | > 100 | > 100 | > 100 |
| Cc1nc(-c2cc3ccccc3oc2=O)cs1 | > 100 | > 100 | > 100 | > 100 | > 100 | > 100 | > 100 | > 100 | > 100 | > 100 | > 100 |
